These results are taken from ChEMBL document CHEMBL3227974, “Multivariate analysis and quantitative structure-activity relationships. Inhibition of dihydrofolate reductase and thymidylate synthetase by quinazolines” (J Med Chem, 1979).

Thymidylate synthase (Mus musculus), sequence (P07607 whole entry, looked up): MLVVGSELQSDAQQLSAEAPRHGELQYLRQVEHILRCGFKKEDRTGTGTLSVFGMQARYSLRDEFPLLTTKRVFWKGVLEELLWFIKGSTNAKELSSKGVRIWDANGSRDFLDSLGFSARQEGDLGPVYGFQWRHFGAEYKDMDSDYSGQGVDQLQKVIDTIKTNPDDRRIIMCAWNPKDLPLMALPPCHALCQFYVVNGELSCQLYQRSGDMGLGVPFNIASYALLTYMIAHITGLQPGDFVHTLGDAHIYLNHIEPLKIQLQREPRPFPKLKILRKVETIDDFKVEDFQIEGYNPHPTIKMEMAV

The first experiment addresses Thymidylate synthase (Mus musculus) (UniProt P07607). Briefly: Inhibition of thymidylate synthetase in mouse L1210S cells. It is filed as cell-based.
Conditions: not given
In turn, `Nc1nc(O)c2cc(CN(C=O)c3ccc(C(=O)NC(CCC(=O)O)C(=O)O)cc3)ccc2n1` (stereo unspecified) gave a log(1/I50) of 7.
On to `CCOC(=O)CCC(NC(=O)c1ccc(NCc2ccc3nc(N)nc(N)c3c2)cc1)C(=O)OCC` (stereo unspecified), for which the log(1/I50) worked out at 4.
On the same count and under the same terms, with `CCOC(=O)c1ccc(NCc2ccc3nc(N)nc(N)c3c2)cc1` the figure was 4; with `CCOC(=O)CCC(NC(=O)c1ccc(CNc2ccc3nc(N)nc(N)c3c2)cc1)C(=O)OCC` (stereo unspecified), 6.
Same read-out and setting: for `Nc1nc(O)c2cc(CCc3ccc(C(=O)NC(CCC(=O)O)C(=O)O)cc3)ccc2n1` (stereo unspecified) the value was 5.3.
On the same count and under the same terms, for `CCOC(=O)c1ccc(NCc2ccc3nc(N)nc(N)c3c2C)cc1` the value was 4.
As for `CCOC(=O)CCC(NC(=O)c1ccc(CNc2ccc3nc(N)nc(O)c3c2)cc1)C(=O)OCC` (stereo unspecified), the log(1/I50) was found to be 6.
The molecule `Nc1nc(N)c2cc(CN(C=O)c3ccc(C(=O)O)cc3)ccc2n1` registered a log(1/I50) of 4.
`CCOC(=O)CCC(NC(=O)c1ccc(NCc2ccc3nc(N)nc(O)c3c2)cc1)C(=O)OCC` (stereo unspecified) yielded a log(1/I50) of 6.6.
`CCOC(=O)c1ccc(CNc2ccc3nc(N)nc(O)c3c2C)cc1` displayed a log(1/I50) of 4.
Still for that read-out and setting: with `Cc1c(CNc2ccc(C(=O)NC(CCC(=O)O)C(=O)O)cc2)ccc2nc(N)nc(O)c12` (stereo unspecified) the figure was 7.
Still for that read-out and setting: with `Nc1nc(O)c2cc(NCc3ccc(C(=O)O)cc3)ccc2n1` the figure was 4.
On the same count and under the same terms, for `CN(Cc1ccc2nc(N)nc(O)c2c1)c1ccc(C(=O)O)cc1` the value was 4.7.
Turning to `Nc1nc(O)c2cc(COc3ccc(C(=O)NC(CCC(=O)O)C(=O)O)cc3)ccc2n1` (stereo unspecified), the log(1/I50) is 5.
The molecule `Nc1nc(O)c2cc(CNc3ccc(C(=O)O)cc3)ccc2n1` had a log(1/I50) of 4.
In turn, `CN(Cc1ccc2nc(N)nc(S)c2c1)c1ccc(C(=O)O)cc1` registered a log(1/I50) of 5.12.
Regarding `Nc1nc(N)c2cc(CNc3ccc(C(=O)NC(CCC(=O)O)C(=O)O)cc3)ccc2n1` (stereo unspecified), the log(1/I50) was found to be 5.
Still for that read-out and setting: for `Cc1c(NCc2ccc(C(=O)O)cc2)ccc2nc(N)nc(O)c12` the value was 4.05; for `CCOC(=O)CCC(NC(=O)c1ccc(N(C)Cc2ccc3nc(N)nc(O)c3c2)cc1)C(=O)OCC` (stereo unspecified), 5.12; for `Nc1nc(S)c2cc(CNc3ccc(C(=O)O)cc3)ccc2n1`, 4.

The target in another experiment is T1, Thymidylate synthase (Lactobacillus casei) (UniProt P00469).
T1 sequence (whole entry): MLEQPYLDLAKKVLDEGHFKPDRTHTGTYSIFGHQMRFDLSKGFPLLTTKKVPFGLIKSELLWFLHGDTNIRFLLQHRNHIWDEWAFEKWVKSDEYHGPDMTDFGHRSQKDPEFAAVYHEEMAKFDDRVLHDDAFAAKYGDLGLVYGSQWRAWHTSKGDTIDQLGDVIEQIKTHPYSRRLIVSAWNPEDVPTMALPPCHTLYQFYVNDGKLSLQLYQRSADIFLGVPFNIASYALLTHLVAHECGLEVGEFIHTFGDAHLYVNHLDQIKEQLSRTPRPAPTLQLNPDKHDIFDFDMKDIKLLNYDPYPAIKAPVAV
The experiment in a line: Inhibition of thymidylate synthetase in Lactobacillus casei. The following applies: Lacticaseibacillus casei.
In the case of `Nc1nc(O)c2cc(CN(C=O)c3ccc(C(=O)NC(CCC(=O)O)C(=O)O)cc3)ccc2n1` (stereo unspecified), the log(1/I50) worked out at 5.52.
In turn, `CCOC(=O)CCC(NC(=O)c1ccc(NCc2ccc3nc(N)nc(N)c3c2)cc1)C(=O)OCC` (stereo unspecified) had a log(1/I50) of 4.
The molecule `CCOC(=O)c1ccc(NCc2ccc3nc(N)nc(N)c3c2)cc1` showed a log(1/I50) of 4.
The same measure, in the same setting: for `CCOC(=O)CCC(NC(=O)c1ccc(CNc2ccc3nc(N)nc(N)c3c2)cc1)C(=O)OCC` (stereo unspecified) the value was 5.
Same read-out and setting: for `Nc1nc(O)c2cc(CCc3ccc(C(=O)NC(CCC(=O)O)C(=O)O)cc3)ccc2n1` (stereo unspecified) the value was 5.12.
Turning to `CCOC(=O)c1ccc(NCc2ccc3nc(N)nc(N)c3c2C)cc1`, the log(1/I50) was determined as 4.
Still for that read-out and setting: for `CCOC(=O)CCC(NC(=O)c1ccc(CNc2ccc3nc(N)nc(O)c3c2)cc1)C(=O)OCC` (stereo unspecified) the value was 4.46; for `Nc1nc(N)c2cc(CN(C=O)c3ccc(C(=O)O)cc3)ccc2n1`, 4.12.
The same measure, in the same setting: with `CCOC(=O)CCC(NC(=O)c1ccc(NCc2ccc3nc(N)nc(O)c3c2)cc1)C(=O)OCC` (stereo unspecified) the figure was 4.15; with `CCOC(=O)c1ccc(CNc2ccc3nc(N)nc(O)c3c2C)cc1`, 4.05.
Molecule `Cc1c(CNc2ccc(C(=O)NC(CCC(=O)O)C(=O)O)cc2)ccc2nc(N)nc(O)c12` (stereo unspecified) yielded a log(1/I50) of 4.9.
`Nc1nc(O)c2cc(NCc3ccc(C(=O)O)cc3)ccc2n1` gave a log(1/I50) of 4.
Same read-out and setting: with `CN(Cc1ccc2nc(N)nc(O)c2c1)c1ccc(C(=O)O)cc1` the figure was 4.12.
Still for that read-out and setting: for `Nc1nc(O)c2cc(COc3ccc(C(=O)NC(CCC(=O)O)C(=O)O)cc3)ccc2n1` (stereo unspecified) the value was 4; for `Nc1nc(O)c2cc(CNc3ccc(C(=O)O)cc3)ccc2n1`, 4; for `CN(Cc1ccc2nc(N)nc(S)c2c1)c1ccc(C(=O)O)cc1`, 4.12.
Still for that read-out and setting: with `Nc1nc(N)c2cc(CNc3ccc(C(=O)NC(CCC(=O)O)C(=O)O)cc3)ccc2n1` (stereo unspecified) the figure was 4; with `Cc1c(NCc2ccc(C(=O)O)cc2)ccc2nc(N)nc(O)c12`, 4.05; with `CCOC(=O)CCC(NC(=O)c1ccc(N(C)Cc2ccc3nc(N)nc(O)c3c2)cc1)C(=O)OCC` (stereo unspecified), 4.12.
Turning to `Nc1nc(S)c2cc(CNc3ccc(C(=O)O)cc3)ccc2n1`, the log(1/I50) came out at 4.

The target in a further experiment is T2, Dihydrofolate reductase (Homo sapiens) (UniProt P00374).
T2 sequence (whole entry): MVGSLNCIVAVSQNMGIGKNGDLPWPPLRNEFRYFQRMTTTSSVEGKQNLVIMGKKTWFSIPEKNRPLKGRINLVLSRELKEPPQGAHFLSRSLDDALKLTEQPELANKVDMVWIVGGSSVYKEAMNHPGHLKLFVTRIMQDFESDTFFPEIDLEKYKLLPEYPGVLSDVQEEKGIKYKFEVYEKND
Conditions: not given
Turning to `Nc1nc(N)c2cc(CN(C=O)c3ccc(C(=O)NC(CCC(=O)O)C(=O)O)cc3)ccc2n1` (stereo unspecified), the log(1/I50) came out at 8.22.
In the case of `Cc1c(CN(N=O)c2ccc(Cl)c(Cl)c2)ccc2nc(N)nc(N)c12`, the log(1/I50) is 8.
The molecule `CCOC(=O)CCC(NC(=O)c1ccc(CNc2ccc3nc(N)nc(N)c3c2)cc1)C(=O)OCC` (stereo unspecified) returned a log(1/I50) of 7.66.
Still for that read-out and setting: for `Nc1nc(O)c2cc(CCc3ccc(C(=O)NC(CCC(=O)O)C(=O)O)cc3)ccc2n1` (stereo unspecified) the value was 6.31.
For `CCOC(=O)CCC(NC(=O)c1ccc(CNc2ccc3nc(N)nc(O)c3c2)cc1)C(=O)OCC` (stereo unspecified), the log(1/I50) was determined as 5.65.
Same read-out and setting: for `Cc1c(CNc2ccc(Cl)c(Cl)c2)ccc2nc(N)nc(N)c12` the value was 8.59.
On the same count and under the same terms, for `CN(Cc1ccc2nc(N)nc(N)c2c1)c1ccc(Cl)c(Cl)c1` the value was 8.3; for `Nc1nc(N)c2cc(CNc3ccc(Cl)c(C(F)(F)F)c3)ccc2n1`, 8.4.
Same read-out and setting: with `CC(=O)N(Cc1ccc2nc(N)nc(N)c2c1)c1ccc(Cl)c(Cl)c1` the figure was 7.3.
The molecule `Cc1c(CNc2ccc(C(=O)NC(CCC(=O)O)C(=O)O)cc2)ccc2nc(N)nc(N)c12` (stereo unspecified) displayed a log(1/I50) of 8.78.
The same measure, in the same setting: for `COc1cc(NCc2ccc3nc(N)nc(N)c3c2)cc(OC)c1OC` the value was 8.22.
